Measured values from patent US8119657B2, “Enantiomeric compositions of 2-amino-1-(2-isopropylpyrazolo[1,5-α]pyridin-3-yl)propan-1-one and related methods” (MediciNova, Inc., priority 2009, dated 2012).
Entries after “also recorded” stand apart in the source; their conditions may differ. Marks after values point to notes of the source that are not given here.

Tests used:
[1] = Rat pharmacokinetics of the enantiomers after oral dosing of racemic AV1013; type: in vivo; conditions: for Cmax: po
Method: Three male Sprague-Dawley rats were dosed orally via gavage with 25 mg/kg racemic AV1013 dissolved in water. Serial blood samples were collected from the tail vein at 5, 15, and 30 min, 1, 3, and 6 hours post dosing. Samples were processed for plasma via centrifugation and plasma samples were stored frozen prior to analysis.
(§1) A sensitive and specific chiral HPLC/MS/MS bioanalytical method for the detection of (S)-AV1013 and (R)-AV1013 enantiomers in rat and dog plasma was utilized. AV1013 enantiomers and the internal standard (AV1040, an analog of AV1013) were isolated from plasma by protein precipitation induced by acetonitrile. After centrifugation to sediment the proteins, the supernatant fractions were analyzed by high performance liquid chromatography (LC) in conjunction with a triple quadrupole mass spectrometer that used electrospray ionization in tandem with positive ionization (MS/MS) according to the conditions below. The LLOQ (lower level of quantitation) was typically <3 ng/mL.
(§2) Analysis of pharmacokinetic parameters was performed for each enantiomer via LC/MS bioanalytics and WinNonlin™ analysis (version 4.0.1; Pharsight Corp., Mountain View, Calif.), commercial software designed for the analysis of PK data. The PK modeling was based on a non-compartmental model with gradual input into the central compartment. Computation of the area under the curve (AUC) was based on the sum of trapezoidal areas for the plotted plasma concentration-time data. AUC and associated parameters were estimated by log-linear regression analysis of the terminal phase.

[2] = Dog pharmacokinetics of the enantiomers after oral dosing of racemic AV1013; type: in vivo; conditions: for Cmax: po
Method: Three male beagle dogs were dosed orally with 10 mg/kg racemic AV1013 via gavage. AV1013 was dissolved in water at 5 mg/ml and dosed via gavage at a volume of 2 ml/kg. Blood samples were collected via the jugular vein at 5, 15 and 30 minutes, 1, 2, 4, 6, 8, and 24 hours post dosing.
as §1, §2

[3] = Bioavailability and duration of action of (S)-AV1013
Water solubility = type: physicochemical
[4] = Chiral and chemical stability in solution and on storage; type: physicochemical; conditions: for racemization in dosing solutions and bioanalytical solutions: saline vehicle, DMSO:methanol, 1:1
Excerpt: Without ascribing to any particular theory, the present inventors believe that the facile separation of enantiomers using the N-protected racemate of AV1013 is probably due to the greater stability of the racemate as well as the separate enantiomers in protected form. […] Unstability also stems from the ability of the free base to self condense. Because self-condensation is promoted in concentrated solutions, it is desirable to avoid highly concentrated solutions of the free base form of optically active AV1013. Likewise, the free base form of racemic AV1013 or its hydrochloride salt are also unstable, precluding their use as precursors to obtaining (S)-AV1013 as a free base or its hydrochloride salt in high yield and/or high purity.
Thus, it is often desirable to re-purify the de-protected product using purification techniques known in the art. For example, any one or more of the methods described above for separating chiral molecules, such as, chromatography (e.g., HPLC, GC, and SFC), crystallization, fractional crystallization, and the like may be used for re-purification. An exemplary method is recrystallization. Purification by recrystallization allows separation of the desired (S)-enantiomer in high purity, such that the overall reaction sequence including isolation of the desired (S)-enantiomer requires only a single chromatographic step (i.e., the chiral separation). Recrystallization can be carried out in any of a number of single or mixed solvent systems including alcohols, ethers, esters, nitriles, halogenated hydrocarbons, amides and aqueous mixtures thereof. Suitable solvents include methanol, ethanol, propanol, iso-propanol, acetone, tetrahyrofuran, methyl ethyl ketone, methyl isobutyl ketone, ethyl acetate, amyl acetate, acetonitrile, diethyl ether, methyl tert-butyl ether, dichloromethane, dichloroethane, chloroform, dimethylformamide, and combinations thereof. Illustrative mixed solvent systems used to recrystallize (S)-AV1013 are iso-propanol/methyl tert-butyl ether and ethanol/methyl tert-butyl ether.
The five-step route provided a 15% overall yield of (S)-AV1013.HCl. The chiral separation, by SFC chromatography, is the only chromatographic step required. Hydrolysis of the N-protected (S)-AV1013, followed by recrystallization from iso-propanol/methyl tert-butyl ether provided (S)-AV1013.HCl in greater than 99% chemical purity and greater than 97% S-enantiomer (greater than 94% enantiomeric excess (ee)) by chiral HPLC, as determined from the equation ee=[|R−S^51÷(R+S)]×100 ee=[|R−S|÷(R+S)]×100. […] Even under optimal storage and handling conditions to minimize exposure to moisture, a small degree of racemization (i.e., approximately 2%) was observed. Recrystallization was effective to improve enantiomeric purity to arrive at a product having an illustrative chiral purity as described above. […] The recrystallized (S)-AV 1013.HCl contained approximately 25 mole percent alcohol (less than about 10% by weight) even when dried at 50° C. Thus, it appears that the resultant product is formed as a solvate under the recrystallization and drying conditions employed.

formalin paw model = assay: Inflammatory pain model (formalin paw model) in mice; type: in vivo; conditions: for % Change from Control / Licking Score (Mean +/− SEM): mice
Method: The model employed is described in detail by Wheeler-Aceto et al (Psychopharmacology, 104, p 35-44, (1991)). Briefly, mice were given an intraplantar injection of 5% formalin (25 μl) into the posterior left paw. […] Mice were briefly observed at 1 minute intervals between 15 and 50 minutes after the injection of formalin and the number of times mice were observed licking the injected paw was recorded. 10 mice were studied in each group. The test was performed blind.
AV1013-S was evaluated at 3 doses (10, 25 and 50 mg/kg), administered p.o. 60 minutes before the test (i.e. 45 minutes before formalin), and compared with a vehicle control group. Gabapentin (300 mg/kg p.o.), administered under the same experimental conditions, was used as reference substance. The experiment therefore included 5 groups.
Data were analyzed by comparing treated groups with vehicle control using unpaired Mann-Whitney U tests.

Rolipram binding site = assay: Inhibition of binding at the Rolipram binding site; conditions: 10 uM
[5] = 10 mg/kg p.o. 60 min before the test
[6] = 25 mg/kg p.o. 60 min before the test

For `CC(C)c1nn2ccccc2c1C(=O)[C@H](C)N` [(S)-AV1013, (S)-2-amino-1-(2-isopropylpyrazolo[1,5-a]pyridin-3-yl)propan-1-one], the AUC(0-t) ([1]; male, Sprague-Dawley, oral 25 mg/kg racemic AV1013, plasma) was 5950 ng·h/mL, the AUC ([1]; male, Sprague-Dawley, plasma, 25 mg/kg, oral dosing of racemate, rounded values, read-out: calculated area under the curves (AUC)) was 6000 ng·h/mL and the Cmax ([1]; male, Sprague-Dawley, plasma, 25 mg/kg, oral 25 mg/kg racemic AV1013, plasma, read-out: Cmax) was 1260 ng/mL. The Cmax ([1]; male, Sprague-Dawley, plasma, 25 mg/kg, oral dosing of racemate, rounded values, read-out: mean peak plasma levels (Cmax)) was 1300 ng/mL, the “AUC of (S) relative to (R) enantiomer” value ([1]; oral dosing of racemate) was “around 17 fold” and the “Cmax of (S) relative to (R) enantiomer” value ([1]; oral dosing of racemate) was “at least 3 fold”. For the same compound, the “AUC of (S) relative to (R) enantiomer” value ([2]; dog, oral dosing of racemate) was over 3 fold, the “Cmax of (S) relative to (R) enantiomer” value ([2]; dog, oral dosing of racemate) was “at least 2 fold” and the “Cmax of (S) relative to (R) enantiomer” value ([2]; dog, oral dosing of racemate, listed as (S)-enantiomer) was over 2 fold. The Cmax ([2]; male, beagle, dog, plasma, 10 mg/kg, beagle dog, oral 10 mg/kg racemic AV1013, plasma, read-out: Cmax) was 2630 ng/mL, the Cmax ([2]; male, beagle, dog, plasma, 10 mg/kg, dog, oral dosing of racemate, rounded values, read-out: mean peak plasma levels (Cmax)) was 2600 ng/mL and the AUC ([2]; male, beagle, plasma, 10 mg/kg, dog, oral dosing of racemate, rounded values, read-out: calculated area under the curves (AUC)) was 24200 ng·h/mL. For the same compound, the AUC(0-t) ([2]; male, beagle dog, oral 10 mg/kg racemic AV1013, plasma) was 24200 ng·h/mL, the “in vivo duration of action” value [3] was 2 to 24 h and the bioavailability ([3]; in vivo, share of the (S)-enantiomer dosed that is bioavailable) was over 70%. The water solubility (Water solubility) was “good water solubility”, the “stability / racemization in solution” value ([4]; free base (or hydrochloride salt where stated), in solution) was “unstable and racemizes in solution; also recorded: racemizes slowly in solution” and the “racemization in dosing solutions and bioanalytical solutions” value [4] was “no detectable interconversion between the enantiomers”. The “racemization in dosing solutions and bioanalytical solutions” value ([4]; listed as (S)-enantiomer) was “no racemization has been documented”, the “% Change from Control” value (formalin paw model; [5]) was −16% and the “Licking Score (Mean +/− SEM)” value (formalin paw model; [5]) was 13.1 +/− 1.5. The “% Change from Control” value (formalin paw model; [6]) was −16%, the “Licking Score (Mean +/− SEM)” value (formalin paw model; [6]) was 13.1 +/− 1.8 and the “% Change from Control” value (formalin paw model; 50 mg/kg p.o. 60 min before the test, 50 mg/kg) was −45%. The “Licking Score (Mean +/− SEM)” value (formalin paw model; 50 mg/kg p.o. 60 min before the test, p < 0.01) was 8.6 +/− 1.4 *, the “analgesic/anti-inflammatory activity in mouse formalin paw model (late-phase)” value (formalin paw model; single oral dose of 50 mg/kg) was “demonstrated analgesic/anti-inflammatory activity” and the “inhibition of the Rolipram binding site” value (Rolipram binding site) was 12%.
